From patent US4876248A, “Anti-inflammatory products derived from methylene-diphosphonic acid, and process for their preparation” (priority 1982, dated 1989)
Where a name gives a salt, the structure may show the parent alone.

These molecules were tested on Adjuvant arthritis (assay: Adjuvant arthritis in the rat (in vivo study), weight of the paw). Details: 10 mg/kg per day cutaneously, 6 days per week, 3 weeks, started 15 days after Mycobacterium tuberculosis injection, right rear paw.
Design: species or system rat (male Sprague-Dawley)
In the case of `O=P(O)(O)C(Sc1nc2ccccc2[nH]1)P(=O)(O)O` [SR 41 263], the “Adjuvant arthritis, weight of the paw % inhibition (difference in average paw weight of treated arthritic rats relative to reference arthritic rats)” value is reported as 19%. In the case of `O=P(O)(O)C(O)(CCSc1ccccc1)P(=O)(O)O` [SR 42 017], the “Adjuvant arthritis, weight of the paw % inhibition (difference in average paw weight of treated arthritic rats relative to reference arthritic rats)” value is reported as 49%. For `CC(C)SC(P(=O)(O)O)P(=O)(O)O` [SR 41 100], the “Adjuvant arthritis, weight of the paw % inhibition (difference in average paw weight of treated arthritic rats relative to reference arthritic rats)” value was 37%. With `O=P(O)(O)C(Sc1ncccn1)P(=O)(O)O` [SR 41 264] the “Adjuvant arthritis, weight of the paw % inhibition (difference in average paw weight of treated arthritic rats relative to reference arthritic rats)” value was 43%. For `O=P(O)(O)C(Sc1ccccn1)P(=O)(O)O` [SR 41 179], the “Adjuvant arthritis, weight of the paw % inhibition (difference in average paw weight of treated arthritic rats relative to reference arthritic rats)” value was 25%. In the case of `O=P(O)(O)C(Sc1ccccc1)P(=O)(O)O` [SR 41 482], the “Adjuvant arthritis, weight of the paw % inhibition (difference in average paw weight of treated arthritic rats relative to reference arthritic rats)” value is reported as 41%. `O=P(O)(O)C(O)(CCCCSc1ccc(F)cc1)P(=O)(O)O` [SR 41 909, Di-(tertiarybutylamine) salt of 5-(4-fluorophenylthio)-1-hydroxy-pentylidene-1,1-diphosphonic acid] was tested, and the “Adjuvant arthritis, weight of the paw % inhibition (difference in average paw weight of treated arthritic rats relative to reference arthritic rats)” value was 53%. For `O=P(O)(O)C(CCCCSc1ccccn1)P(=O)(O)O` [SR 42 099, 5-(pyrid-2-yl-thio)-pentylidene-1,1-diphosphonic acid], the “Adjuvant arthritis, weight of the paw % inhibition (difference in average paw weight of treated arthritic rats relative to reference arthritic rats)” value was 44%. For `CC(C)OP(=O)(OC(C)C)C(CCCSc1ccccc1)P(=O)(OC(C)C)OC(C)C` [SR 41 341, Tetraisopropyl 4-phenylthio-butylene-1,1-diphosphonate], the “Adjuvant arthritis, weight of the paw % inhibition (difference in average paw weight of treated arthritic rats relative to reference arthritic rats)” value was 24%. In the case of `CN(C)CCSC(P(=O)(O)O)P(=O)(O)O` [SR 41 344], the “Adjuvant arthritis, weight of the paw % inhibition (difference in average paw weight of treated arthritic rats relative to reference arthritic rats)” value is reported as 35%. `O=P(O)(O)C(Sc1cccs1)P(=O)(O)O` [SR 41 549, thien-2-yl-thiomethylene-diphosphonic acid] was tested, and the “Adjuvant arthritis, weight of the paw % inhibition (difference in average paw weight of treated arthritic rats relative to reference arthritic rats)” value was 34%. In the case of `CSCCCCCCCCCCC(O)(P(=O)(O)O)P(=O)(O)O` [SR 42 097], the “Adjuvant arthritis, weight of the paw % inhibition (difference in average paw weight of treated arthritic rats relative to reference arthritic rats)” value is reported as 50%. `O=P(O)(O)C(Sc1nc2cc(Cl)ccc2[nH]1)P(=O)(O)O` [SR 41 480] was tested, and the “Adjuvant arthritis, weight of the paw % inhibition (difference in average paw weight of treated arthritic rats relative to reference arthritic rats)” value was 40%. In the case of `O=P(O)(O)C(O)(CCCCSc1ccc(Cl)cc1)P(=O)(O)O` [SR 42 016], the “Adjuvant arthritis, weight of the paw % inhibition (difference in average paw weight of treated arthritic rats relative to reference arthritic rats)” value is reported as 48%. With `O=P(O)(O)C(Sc1ccccc1Cl)P(=O)(O)O` [SR 41 689] the “Adjuvant arthritis, weight of the paw % inhibition (difference in average paw weight of treated arthritic rats relative to reference arthritic rats)” value was 31%. For `CCCCCCCCCCCCCCCCSC(P(=O)(O)O)P(=O)(O)O` [SR 41 453, Monoammonium hexadecylthiomethylene-diphosphonate], the “Adjuvant arthritis, weight of the paw % inhibition (difference in average paw weight of treated arthritic rats relative to reference arthritic rats)” value was 58%. For `CCCCCCCCSC(P(=O)(O)O)P(=O)(O)O` [SR 41 421], the “Adjuvant arthritis, weight of the paw % inhibition (difference in average paw weight of treated arthritic rats relative to reference arthritic rats)” value was 55%. `O=P(O)(O)C(Sc1nc2ccccc2s1)P(=O)(O)O` [SR 41 481, Tri-(tertiarybutylamine) salt of benzothiazol-2-yl-thiomethylene-diphosphonic acid] was tested, and the “Adjuvant arthritis, weight of the paw % inhibition (difference in average paw weight of treated arthritic rats relative to reference arthritic rats)” value was 40%. With `CSCCC(P(=O)(O)O)P(=O)(O)O` [SR 41 273, Tertiary butylamine salt of 3-methylthio-propylidene-1,1-diphosphonic acid] the “Adjuvant arthritis, weight of the paw % inhibition (difference in average paw weight of treated arthritic rats relative to reference arthritic rats)” value was 39%. With `CSC(P(=O)(O)O)P(=O)(O)O` [SR 41 036, Tri-(tertiary butylamine) salt of methylthio-methylene-diphosphonic acid] the “Adjuvant arthritis, weight of the paw % inhibition (difference in average paw weight of treated arthritic rats relative to reference arthritic rats)” value was 23%. For `O=P(O)(O)C(CCCCCCSc1ccc(Cl)cc1)P(=O)(O)O` [SR 41 959], the “Adjuvant arthritis, weight of the paw % inhibition (difference in average paw weight of treated arthritic rats relative to reference arthritic rats)” value was 60%. `O=P(O)(O)C(CCCCS)P(=O)(O)O` [SR 41 527, Di-(tertiarybutylalmine) salt of 5-mercapto-pentylidene-1,1-diphosphonic acid] was tested, and the “Adjuvant arthritis, weight of the paw % inhibition (difference in average paw weight of treated arthritic rats relative to reference arthritic rats)” value was 34%. For `CCCCCCCSC(P(=O)(O)O)P(=O)(O)O` [SR 41 552], the “Adjuvant arthritis, weight of the paw % inhibition (difference in average paw weight of treated arthritic rats relative to reference arthritic rats)” value was 36%. With `NCCSC(P(=O)(O)O)P(=O)(O)O` [SR 41 266] the “Adjuvant arthritis, weight of the paw % inhibition (difference in average paw weight of treated arthritic rats relative to reference arthritic rats)” value was 29%. For `CCCCCSCCCC(O)(P(=O)(O)O)P(=O)(O)O` [SR 41 961], the “Adjuvant arthritis, weight of the paw % inhibition (difference in average paw weight of treated arthritic rats relative to reference arthritic rats)” value was 53%. For `Nc1ccccc1SC(P(=O)(O)O)P(=O)(O)O` [SR 41 388], the “Adjuvant arthritis, weight of the paw % inhibition (difference in average paw weight of treated arthritic rats relative to reference arthritic rats)” value was 42%. `CCCCCCCCSC(P(=O)(OC(C)C)OC(C)C)P(=O)(OC(C)C)OC(C)C` [SR 41 454, Tetraisopropyl n-octylthiomethylene-diphosphonate] was tested, and the “Adjuvant arthritis, weight of the paw % inhibition (difference in average paw weight of treated arthritic rats relative to reference arthritic rats)” value was 33%. With `CCCSCCCCCC(O)(P(=O)(O)O)P(=O)(O)O` [SR 42 015] the “Adjuvant arthritis, weight of the paw % inhibition (difference in average paw weight of treated arthritic rats relative to reference arthritic rats)” value was 47%. For `CC(C)OP(=O)(OC(C)C)C(Sc1ccccc1C(=O)O)P(=O)(OC(C)C)OC(C)C` [SR 41 452], the “Adjuvant arthritis, weight of the paw % inhibition (difference in average paw weight of treated arthritic rats relative to reference arthritic rats)” value was 15%. For `O=P(O)(O)C(O)(CCCSc1ccc(Cl)cc1)P(=O)(O)O` [SR 41 903, Di-(tertiarybutylamine) salt of 4-(4-chlorophenylthio)-1-hydroxy-butylidene-1,1-diphosphonic acid], the “Adjuvant arthritis, weight of the paw % inhibition (difference in average paw weight of treated arthritic rats relative to reference arthritic rats)” value was 55%. For `O=P(O)(O)C(CCCSc1ccccc1)P(=O)(O)O` [SR 41 342, Di-(tertiarybutylamine salt) of 4-phenylthio-butylidene-1,1-diphosphonic acid], the “Adjuvant arthritis, weight of the paw % inhibition (difference in average paw weight of treated arthritic rats relative to reference arthritic rats)” value was 38%.
